Measured values as given in US20240343717A1, “MICROBIOCIDAL PYRAZOLE DERIVATIVES” (SYNGENTA CROP PROTECTION AG, priority 2021, published 2024).

Key:
[1] = tested on: Pyrenophora teres; test: Pyrenophora teres / barley / leaf disc preventative (net blotch); format: in vivo; settings: foliar, barley leaf segments, inoculated 2 days after application
Outline: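 Barley cv. Hasso leaf segments on agar sprayed with formulated compound, inoculated with spores 2 days later. Incubated at 20 °C, 65% rh, 12 h light/dark; disease control versus untreated assessed 5–7 days after application.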

[2] = tested on: Magnaporthe grisea (Pyricularia Oryzae); test: whole plant or invertebrate; format: in vivo; settings: foliar, read-out: control of Magnaporthe grisea
[3] = tested on: Blumeria graminis f. sp. tritici (Erysiphe graminis f. sp. tritici); test: Blumeria graminis f. sp. tritici / wheat / leaf disc preventative (powdery mildew on wheat); format: in vivo; settings: foliar, wheat leaf segments, inoculated 1 day after application
Outline: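 Wheat cv. Kanzler leaf segments on agar sprayed with formulated compound in water, inoculated 1 day later by shaking mildew-infected plants overhead. Incubated at 20° C, 60% rh, 24 h dark then 12 h light/12 h dark. Percent disease control versus untreated scored 6-8 days after application.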

[4] = tested on: Alternaria solani; test: Alternaria solani / tomato / leaf disc (early blight); format: in vivo; settings: foliar, tomato leaf disks, sprayed 2 days before inoculation, compared to untreated control
Protocol: Example B1: Alternaria solani/Tomato/Leaf Disc (Early Blight) Tomato leaf disks cv. Baby are placed on agar in multiwell plates (24-well format) and sprayed with the formulated test compound diluted in water. The leaf disks are inoculated with a spore suspension of the fungus 2 days after application. The inoculated leaf disks are incubated at 23° C./21° C.

[5] = tested on: Fusarium culmorum; test: microbe, parasite or virus in culture; format: cell-based; settings: read-out: control of Fusarium culmorum
[6] = tested on: Botryotinia fuckeliana (Botrytis cinerea); test: Botryotinia fuckeliana (Botrytis cinerea) / liquid culture (gray mould); format: cell-based; settings: growth inhibition photometrically 3-4 days after application, read-out: control of Botryotinia fuckeliana
Outline: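 Conidia suspended in Vogels broth and added to compound dispensed from DMSO. Incubated at 24°C, with growth inhibition measured photometrically 3–4 days later.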

[7] = tested on: Mycosphaerella graminicola (Septoria tritici); test: Mycosphaerella graminicola (Septoria tritici) / liquid culture (Septoria blotch); format: cell-based; settings: Zymoseptoria tritici, growth inhibition photometrically 4-5 days after application, read-out: control of Mycosphaerella graminicola
Outline: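 Conidia suspended in potato dextrose broth and added to test compound supplied in DMSO in 96-well plates. Incubated at 24 °C, and growth inhibition read photometrically 4-5 days after application.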

[8] = tested on: Sclerotinia sclerotiorum; test: Sclerotinia sclerotiorum / liquid culture (cottony rot); format: cell-based; settings: growth inhibition photometrically 3-4 days after application, read-out: control of Sclerotinia sclerotiorum
Outline: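 Mycelial fragments from fresh liquid culture in potato dextrose broth added to test compound in DMSO. Incubation at 24° C; growth inhibition read photometrically 3-4 days after application.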

[9] = tested on: Glomerella lagenarium (Colletotrichum lagenarium); test: Glomerella lagenarium (Colletotrichum lagenarium) / liquid culture (anthracnose); format: cell-based; settings: Colletotrichum orbiculare, growth inhibition photometrically 3-4 days after application, read-out: control of Glomerella lagenarium
Outline: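 Cryo-stored conidia in potato dextrose broth were added to test compound in DMSO. Plates were incubated at 24° C, and growth inhibition was read photometrically 3-4 days after application.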

[10] = tested on: Fusarium culmorum; test: whole plant or invertebrate; format: in vivo; settings: in Triticum aestivum, read-out: control of Fusarium culmorum
[11] = tested on: Monographella nivalis (Microdochium nivale); test: Monographella nivalis (Microdochium nivale) / liquid culture (foot rot cereals); format: cell-based; settings: growth inhibition photometrically 4-5 days after application, read-out: control of Monographella nivalis
Outline: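 Fungal conidia mixed directly into potato dextrose broth and added to test compound delivered in DMSO. Incubated at 24° C; growth inhibition read photometrically 4-5 days after application.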

[12] = tested on: Phaeosphaeria nodorum (Septoria nodorum); test: Phaeosphaeria nodorum (Septoria nodorum) / wheat / leaf disc preventative (glume blotch); format: in vivo; settings: Parastagonospora nodorum, foliar, wheat leaf segments, inoculated 2 days after application
Outline: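 Wheat cv. Kanzler leaf segments on agar sprayed preventatively with formulated compound diluted in water, then inoculated with spore suspension 2 days after application. Incubated at 20° C, 75% rh, 12 h light/12 h dark; percent disease control versus untreated scored 5-7 days after application.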

[13] = tested on: Mycosphaerella arachidis (Cercospora arachidicola); test: Mycosphaerella arachidis (Cercospora arachidicola) / liquid culture (early leaf spot); format: cell-based; settings: growth inhibition photometrically 4-5 days after application, read-out: control of Mycosphaerella arachidis
Outline: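 Spores taken straight from cryostorage are suspended in potato dextrose broth and added to test compound in DMSO. Plates are incubated at 24° C. Growth inhibition is scored photometrically 4-5 days after application.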

[14] = tested on: Gibberella zeae (Fusarium graminearum); test: whole plant or invertebrate; format: in vivo; settings: in Triticum aestivum, read-out: control of Gibberella zeae

| SMILES | pest or weed control at 200 ppm [1] [%] | pest or weed control at 200 ppm [2] [%] | pest or weed control at 200 ppm [3] [%] | pest or weed control at 200 ppm [4] [%] | inhibition of growth at 20 ppm [5] [%] | inhibition of growth at 20 ppm [6] [%] | inhibition of growth at 20 ppm [7] [%] | inhibition of growth at 20 ppm [8] [%] | inhibition of growth at 20 ppm [9] [%] | pest or weed control at 200 ppm [10] [%] | inhibition of growth at 20 ppm [11] [%] | pest or weed control at 200 ppm [12] [%] | inhibition of growth at 20 ppm [13] [%] | pest or weed control at 200 ppm [14] [%] | melting point [°C] |
| --- | --- | --- | --- | --- | --- | --- | --- | --- | --- | --- | --- | --- | --- | --- | --- |
| Cn1cc(C(CNC(=O)c2cc(-c3ccc(F)cc3F)on2)c2cnccn2)cn1 (stereo not shown) [Compound P-8, 5-(2,4-difluorophenyl)-N-[2-(1-methylpyrazol-4-yl)-2-pyrazin-2-yl-ethyl]isoxazole-3-carboxamide] | ≥ 80 | ≥ 80 | ≥ 80 | – | – | – | – | – | – | – | – | – | – | – | – |
| Cn1cc(C(C)(CNC(=O)c2cc(-c3ccc(F)cc3F)on2)c2cccc(Cl)n2)cn1 (stereo not shown) [Compound P-10, N-[2-(6-chloro-2-pyridyl)-2-(1-methylpyrazol-4-yl)propyl]-5-(2,4-difluorophenyl)isoxazole-3-carboxamide] | ≥ 80 | ≥ 80 | ≥ 80 | ≥ 80 | ≥ 80 | ≥ 80 | ≥ 80 | ≥ 80 | ≥ 80 | ≥ 80 | ≥ 80 | ≥ 80 | ≥ 80 | – | – |
| Cn1cc(C(C)(CNC(=O)c2cc(-c3ccc(F)cc3F)on2)c2cccc(C#N)n2)cn1 (stereo not shown) [Compound P-15, N-[2-(6-cyano-2-pyridyl)-2-(1-methylpyrazol-4-yl)propyl]-5-(2,4-difluorophenyl) isoxazole-3-carboxamide] | ≥ 80 | ≥ 80 | ≥ 80 | ≥ 80 | ≥ 80 | ≥ 80 | ≥ 80 | – | ≥ 80 | – | ≥ 80 | ≥ 80 | ≥ 80 | – | – |
| Cn1ncc(C(C)(CNC(=O)c2cc(-c3ccc(F)cc3F)on2)c2cccc(Cl)n2)c1Cl (stereo not shown) [Compound P-26, N-[2-(5-chloro-1-methyl-pyrazol-4-yl)-2-(6-chloro-2-pyridyl)propyl]-5-(2,4-difluorophenyl) isoxazole-3-carboxamide] | ≥ 80 | ≥ 80 | ≥ 80 | ≥ 80 | ≥ 80 | ≥ 80 | ≥ 80 | ≥ 80 | ≥ 80 | – | ≥ 80 | ≥ 80 | ≥ 80 | ≥ 80 | – |
| COc1cc(Cl)nc(C(C)(CNC(=O)c2cc(-c3ccc(F)cc3F)on2)c2cnn(C)c2)c1 (stereo not shown) [Compound P-36, N-[2-(6-chloro-4-methoxy-2-pyridyl)-2-(1-methylpyrazol-4-yl)propyl]-5-(2,4-difluorophenyl) isoxazole-3-carboxamide] | ≥ 80 | – | ≥ 80 | – | ≥ 80 | ≥ 80 | ≥ 80 | – | ≥ 80 | ≥ 80 | ≥ 80 | – | ≥ 80 | ≥ 80 | 157 to 159 |
| COC(=O)c1cccc(C(C)(CNC(=O)c2cc(-c3ccc(F)cc3F)on2)c2cnn(C)c2)n1 (stereo not shown) [Compound P-39, methyl 6-[2-[5-(2,4-difluorophenyl)isoxazole-3-carbonyl]amino]-1-methyl-1-(1-methylpyrazol-4-yl)ethyl]pyridine-2-carboxylate] | – | ≥ 80 | – | – | – | ≥ 80 | ≥ 80 | – | ≥ 80 | – | ≥ 80 | ≥ 80 | – | – | – |
| Cn1cc(C(C)(CNC(=O)c2cc(-c3ccc(F)cc3F)no2)c2cccc(Cl)n2)cn1 (stereo not shown) [Compound P-42, N-[2-(6-chloro-2-pyridyl)-2-(1-methylpyrazol-4-yl)propyl]-3-(2,4-difluorophenyl) isoxazole-5-carboxamide] | ≥ 80 | ≥ 80 | – | – | ≥ 80 | ≥ 80 | ≥ 80 | ≥ 80 | – | ≥ 80 | ≥ 80 | ≥ 80 | ≥ 80 | ≥ 80 | 126 to 128 |
| CO/N=C(\C)c1cccc(C(C)(CNC(=O)c2cc(-c3ccc(F)cc3F)on2)c2cnn(C)c2)n1 (stereo not shown) [Compound P-49, 5-(2,4-difluorophenyl)-N-[2-[6-[(E)-N-methoxy-C-methyl-carbonimidoyl]-2-pyridyl]-2-(1-methylpyrazol-4-lyl)propyl]isoxazole-3-carboxamide] | ≥ 80 | ≥ 80 | ≥ 80 | ≥ 80 | ≥ 80 | ≥ 80 | ≥ 80 | ≥ 80 | ≥ 80 | ≥ 80 | ≥ 80 | ≥ 80 | ≥ 80 | – | – |
| CC(C)Nc1cccc(C(C)(CNC(=O)c2cc(-c3ccc(F)cc3F)on2)c2cnn(C)c2)n1 (stereo not shown) [Compound P-103, 5-(2,4-difluorophenyl)-N-[2-[6-(isopropylamino)-2-pyridyl]-2-(1-methylpyrazol-4-yl)propyl]isoxazole-3-carboxamide] | – | ≥ 80 | – | – | – | – | ≥ 80 | – | – | – | ≥ 80 | – | – | – | – |
| Cc1ccc(C(C)(CNC(=O)c2cc(-c3ccc(F)cc3F)on2)c2cnn(C)c2)nc1Br (stereo not shown) [Compound P-110, N-[2-(6-bromo-5-methyl-2-pyridyl)-2-(1-methylpyrazol-4-yl)propyl]-5-(2,4-difluorophenyl) isoxazole-3-carboxamide] | ≥ 80 | ≥ 80 | ≥ 80 | ≥ 80 | ≥ 80 | ≥ 80 | ≥ 80 | ≥ 80 | ≥ 80 | – | ≥ 80 | ≥ 80 | ≥ 80 | – | – |
